Reference: paper PMC10040144 (ACS infectious diseases, 2022)

Legend:
E. coli MG1655 [1] = assay: Phase-contrast imaging of treated cells; assay type: cell-based; settings: Figure S5
PBP1b = PBP1b (Escherichia coli, UniProt P02919); assay type: cell-based, Escherichia coli MG1655
PBP3 = PBP3 (Escherichia coli, UniProt P0AD68); assay type: cell-based, Escherichia coli MG1655
PBP1a = PBP1a (Escherichia coli, UniProt P02918); assay type: cell-based, Escherichia coli MG1655
PBP4 [2] = biological target: T1, PBP4 (Escherichia coli, UniProt P24228); assay type: cell-based, Escherichia coli MG1655; settings: for Bocillin-FL labeling of PBP4 at high inhibitor concentration: 10 mM inhibitor, all three biological replicates
PBP2 = PBP2 (Escherichia coli, UniProt P0AD65); assay type: cell-based, Escherichia coli MG1655
PBP7 = PBP7 (Escherichia coli, UniProt P0AFI5); assay type: cell-based, Escherichia coli MG1655
PBP5/6 = assay type: cell-based, Escherichia coli MG1655; settings: 10 mM inhibitor, all three biological replicates
PBP4 [3] = settings: read-out: reported IC50 values PBP4; literature range; cited from earlier work
PBP4 [4] = biological target: T1, PBP4; assay: Meropenem titration against the PBPs in cell lysate; assay type: binding; settings: E. coli MG1655 lysate, in vitro (Figure S3)
E. coli MG1655 [5] = assay: Growth curve analysis of viability after permeabilization; settings: 200 μM in Tris for 30 min, then LB broth 37 °C, A600 over 18 h
[6] = 10 mM inhibitor, all three biological replicates

Molecule	IC50 (PBP1b)	IC50 (PBP3)	IC50 (PBP1a)	IC50 (PBP4 [2])	IC50 (PBP2)	IC50 (PBP7)	also measured
O=C(O)CN(CCN(CC(=O)O)CC(=O)O)CC(=O)O [Tris-EDTA, ethylenediaminetetraacetic acid]							cell morphology by phase-contrast imaging (E. coli MG1655 [1]): little difference in the morphologies; fold increases in PBP labeling in comparison to Tris alone (PBPs; cotreatment with 25 μM Bocillin-FL in 50 mM Tris-200 μM EDTA, 30 min): 1.2–5 fold; fold increases in Bocillin-FL labeling in comparison to the original DC2 method (PBPs; vs 7.5 μM Bocillin-FL in PBS, 10 min): 2 to 61 fold
NC(=O)[C@@H]1CC[C@@H]2CN1C(=O)N2OS(=O)(=O)O [avibactam]	310 ± 460 µM	> 10000 µM	> 10000 µM	> 10000 µM	< 100 µM		
C[C@H]1[C@H](NC(=O)/C(=N\OC(C)(C)C(=O)O)c2csc(N)n2)C(=O)N1S(=O)(=O)O [aztreonam]	1.6 ± 0.9 µM		970 ± 940 µM	> 10000 µM	> 10000 µM		Bocillin-FL labeling of PBP7 at high inhibitor concentration (PBP7; [6]): increased Bocillin-FL labeling; Bocillin-FL labeling of PBP4 at high inhibitor concentration (PBP4 [2]): increased Bocillin-FL labeling; Bocillin-FL labeling of PBP2 at high inhibitor concentration (PBP2; [6]): increased Bocillin-FL labeling
N[C@@H](C(=O)N[C@@H]1C(=O)N2C(C(=O)O)=C(Cl)CS[C@H]12)c1ccccc1 [cefaclor]	> 10000 µM	15 ± 14 µM	> 10000 µM	> 10000 µM	360 ± 210 µM	86 ± 66 µM	Bocillin-FL labeling of PBP5/6 at high inhibitor concentration (PBP5/6): labeling was increased
CO/N=C(\C(=O)N[C@@H]1C(=O)N2C(C(=O)[O-])=C(C[N+]3(C)CCCC3)CS[C@H]12)c1csc(N)n1 [cefepime]	2.6 ± 2.4 µM	< 0.0001 µM	5.5 ± 2.6 µM	> 10000 µM	0.2 ± 0.1 µM		Bocillin-FL labeling of PBP5/6 at high inhibitor concentration (PBP5/6): increased Bocillin-FL labeling; Bocillin-FL labeling of PBP4 at high inhibitor concentration (PBP4 [2]): increased Bocillin-FL labeling
CO/N=C(\C(=O)N[C@@H]1C(=O)N2C(C(=O)O)=C(CSc3nc(=O)c(=O)[nH]n3C)CS[C@H]12)c1csc(N)n1 [ceftriaxone]	0.2 ± 0.2 µM		4.9 ± 2.2 µM	3 ± 8 µM	1.5 ± 0.9 µM	9.5 ± 9.8 µM	
CO/N=C(\C(=O)N[C@@H]1C(=O)N2C(C(=O)O)=C(COC(N)=O)CS[C@H]12)c1ccco1 [cefuroxime]	1.6 ± 1.9 µM	0.02 ± 0.01 µM	73 ± 42 µM	24 ± 22 µM	91 ± 65 µM	25 ± 31 µM	
CC1=C(C(=O)O)N2C(=O)[C@@H](NC(=O)[C@H](N)c3ccccc3)[C@H]2SC1 [cephalexin]	> 10000 µM		> 10000 µM	68 ± 79 µM		200 ± 250 µM	
C[C@@H](O)[C@H]1C(=O)N2C(C(=O)O)=C([C@H]3CCCO3)S[C@H]12 [faropenem]	0.4 ± 0.2 µM		6.4 ± 3.6 µM	2 ± 1.6 µM	0.04 ± 0.04 µM	1.2 ± 1.8 µM	
C[C@@H](O)[C@H]1C(=O)N2C(C(=O)O)=C(S[C@@H]3CN[C@H](C(=O)N(C)C)C3)[C@H](C)[C@H]12 [meropenem]	110 ± 86 µM		> 10000 µM	> 10000 µM	0.01 µM		IC50 (PBP4 [3]): 0.0001 to 0.01 µM; PBP4 inhibition in lysate (PBP4 [4]): no PBP4 inhibition
COc1cccc(OC)c1C(=O)N[C@@H]1C(=O)N2[C@@H]1SC(C)(C)[C@@H]2C(=O)O [methicillin]			> 10000 µM	87 ± 51 µM		58 ± 70 µM	
CC1(C)S[C@@H]2[C@H](NC(=O)Cc3ccccc3)C(=O)N2[C@H]1C(=O)O [penicillin G]	1.5 ± 0.7 µM	15 ± 9 µM	170 ± 93 µM		65 ± 36 µM		
CCN1CCN(C(=O)N[C@@H](C(=O)N[C@@H]2C(=O)N3[C@@H]2SC(C)(C)[C@@H]3C(=O)O)c2ccccc2)C(=O)C1=O [piperacillin]	12 ± 7.4 µM		17 ± 15 µM	25 ± 24 µM	2.8 ± 2.8 µM	2.3 ± 2.5 µM	
colistin							lag in growth (E. coli MG1655 [5]): ~ 10 h
